Experimental data as given in publication PMC3996151, “Safety and pharmacological characterization of the molecular tweezer CLR01 – a broad-spectrum inhibitor of amyloid proteins’ toxicity” (BMC Pharmacology & Toxicology, 2014).
Where two headings read alike, the source gives them in different places.

Legend:
[1] = set-up: method as in Lopes et al., submitted; conditions: SC pumps; ref Lopes et al., submitted; cited from earlier work
[2] = Plasma concentration by LC-MS after SC, IV or oral administration; format: in vivo, mouse
Procedure: For studies of plasma concentration, CLR01 was administered by either SC or intravenous (IV) injection at 1 mg/kg, or by oral gavage at 10 mg/kg, and plasma was collected at time points between 0.33 - 24 h. Three mice were used per time point. The concentration of CLR01 in plasma was determined by Wolfe Laboratories Inc. (Watertown, MA) using liquid chromatography-mass spectrometry (LC-MS) by interpolation of sample peak area data into the calibration curve.

[3] = In vitro dephosphorylation by brain homogenate (inorganic phosphate release); format: in vitro ADME, mouse; conditions: 50 nmol CLR01, 1.5 mg mouse-brain homogenate, 60 min at 60°C
Procedure: (§1) Potential dephosphorylation of CLR01 was analyzed by incubating 100 nmol CLR01 with 0.08 units of alkaline phosphatase (ALP; calf intestinal alkaline phosphatase, Promega, Madison, Wisconsin) for 60 min at 60°C. One enzymatic unit is defined as the amount of enzyme required for catalyzing the hydrolysis of 1 μmol of p-nitrophenylphosphate per minute. p-Nitrophenylphosphate disodium salt at 5–50 nmol (Fisher, Waltham, Massachusetts) was used for generation of a standard curve. The amount of inorganic phosphate generated was measured spectrophotometrically using an EnzChek Phosphate Assay kit (Life Technologies, Carlsbad, California) according to the manufacturer’s instructions on a DU-640 spectrophotometer (Beckman Coulter, Brea, California) at λ = 360 nm. Baseline values were subtracted from readings and compared to the standard curve resulting from serial ALP reactions to calculate the amount of inorganic phosphate. Similarly, potential dephosphorylation of CLR01 by brain homogenates was measured. For these experiments, one brain hemisphere was homogenized by sonication in the presence of cOmplete protease-inhibitor cocktail (Roche, Penzberg, Germany). Protein concentration was measured using a BCA Protein Assay Kit (Pierce, Rockford, Illinois). […]

[4] = set-up: method as in PMID 23183235; conditions: mouse plasma; cited from earlier work
[5] = system: 3×Tg mouse model of AD; set-up: method as in PMID 23183235; conditions: cited from earlier work
[6] = set-up: method as in PMID 23183235; conditions: mouse liver microsomes; cited from earlier work
[7] = set-up: method as in PMID 23183235; conditions: human liver microsomes; cited from earlier work
[8] = biological target: Poly [ADP-ribose] polymerase 1 (PARP-1); set-up: method as in T. Schrader, unpublished results; conditions: enzyme concentration of 2.3 nM; ref T. Schrader, unpublished results; cited from earlier work
[9] = biological target: T1, porcine brain tubulin (Sus scrofa, UniProt P02550+P02554); test: Inhibition of tubulin polymerization (turbidity, absorbance at 340 nm); format: biochemical
T1 construct: porcine brain tubulin; purchased Cytoskeleton, Inc., Denver, Colorado; host or cells: porcine brain (tissue-purified)
Procedure: The effect of CLR01 on tubulin polymerization was analyzed using a commercial kit (Cytoskeleton, Inc., Denver, Colorado). Three mg/ml porcine brain tubulin (~18 μM) were allowed to polymerize at 37 °C in the absence or presence of CLR01 concentrations ranging from 10–1,000 μM. The turbidity of the solution was measured as absorbance at λ = 340 nm using a Synergy HT microplate reader (BioTek, Winooski, VT). The data are an average of three independent experiments with two wells per condition.
As stated above, the mechanism by which CLR01 remodels the assembly of amyloidogenic proteins into non-toxic assemblies that can be degraded by normal clearance mechanisms is by its specific binding to Lys residues. The mechanism is “process-specific” because it is postulated to affect only the aberrant assembly of proteins that leads to toxic oligomers and aggregates, but not normal protein structure, function, or assembly as happens, e.g., in tubulin polymerization. To test whether this indeed is the case, we examined the effect of CLR01 on tubulin polymerization. Three mg/ml (~18 μM) porcine brain tubulin, which contains 3.8% Lys and 4.8% Arg, was allowed to polymerize in the absence or presence of CLR01 concentrations ranging from 10–1,000 μM.

[10] = set-up: method as in PMID 18605724, PMID 23750919; conditions: cited from earlier work
[11] = set-up: method as in PMID 23183235; conditions: 3H-CLR01 IV, 12-m old WT and 3×Tg AD mice; cited from earlier work
[12] = system: cytochrome P450 system, five major isoforms; set-up: method as in PMID 23183235; conditions: half-maximal inhibition concentration values above levels expected to cause drug–drug interactions; cited from earlier work
[13] = biological target: T2, calf intestinal alkaline phosphatase (Bos taurus, UniProt P19111); test: In vitro dephosphorylation by alkaline phosphatase (inorganic phosphate release); format: in vitro ADME; conditions: up to 100 nmol CLR01, 60 min at 60°C, detection limit 5 nmol
T2 construct: purchased Promega, Madison, Wisconsin
Procedure: as §1

[14] = set-up: method as in PMID 21916458, PMID 16218636; conditions: cited from earlier work
[15] = system: α-synuclein (α-syn); set-up: method as in PMID 22373667; conditions: up to 10 μM in the water environment; cited from earlier work
[16] = system: primary neurons; set-up: method as in PMID 23183235; conditions: cited from earlier work
[17] = biological target: alcohol dehydrogenase (ADH); set-up: method as in PMID 18605724; conditions: ADH concentration of 208 nM; cited from earlier work
[18] = system: transthyretin; set-up: method as in PMID 24459092; conditions: peripheral administration, 1.2 mg/kg/day; cited from earlier work

T1 sequence (P02550 whole entry): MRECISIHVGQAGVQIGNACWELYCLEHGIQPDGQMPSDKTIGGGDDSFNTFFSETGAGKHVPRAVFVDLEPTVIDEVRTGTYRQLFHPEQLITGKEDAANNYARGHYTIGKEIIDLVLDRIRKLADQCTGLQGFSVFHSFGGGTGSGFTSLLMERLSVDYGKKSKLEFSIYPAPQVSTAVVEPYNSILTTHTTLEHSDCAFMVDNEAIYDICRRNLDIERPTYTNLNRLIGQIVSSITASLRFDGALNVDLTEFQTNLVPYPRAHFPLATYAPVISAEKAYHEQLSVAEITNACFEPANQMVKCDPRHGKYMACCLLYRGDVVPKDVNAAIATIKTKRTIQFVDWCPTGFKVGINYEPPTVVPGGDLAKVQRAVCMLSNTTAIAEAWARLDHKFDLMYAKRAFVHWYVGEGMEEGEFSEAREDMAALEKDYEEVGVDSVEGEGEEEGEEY
T1 sequence (P02554 whole entry): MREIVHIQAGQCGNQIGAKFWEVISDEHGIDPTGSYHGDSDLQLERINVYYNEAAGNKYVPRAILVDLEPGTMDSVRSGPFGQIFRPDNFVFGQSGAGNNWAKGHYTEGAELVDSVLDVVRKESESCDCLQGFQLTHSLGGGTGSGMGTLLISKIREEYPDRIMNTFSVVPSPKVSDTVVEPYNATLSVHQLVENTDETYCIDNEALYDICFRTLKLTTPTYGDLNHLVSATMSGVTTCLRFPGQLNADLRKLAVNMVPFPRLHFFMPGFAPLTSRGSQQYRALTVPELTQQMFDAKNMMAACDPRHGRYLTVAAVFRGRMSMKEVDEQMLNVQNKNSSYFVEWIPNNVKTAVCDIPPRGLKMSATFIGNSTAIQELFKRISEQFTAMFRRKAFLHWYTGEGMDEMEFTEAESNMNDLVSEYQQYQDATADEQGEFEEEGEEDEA
T2 sequence (P19111 20-533): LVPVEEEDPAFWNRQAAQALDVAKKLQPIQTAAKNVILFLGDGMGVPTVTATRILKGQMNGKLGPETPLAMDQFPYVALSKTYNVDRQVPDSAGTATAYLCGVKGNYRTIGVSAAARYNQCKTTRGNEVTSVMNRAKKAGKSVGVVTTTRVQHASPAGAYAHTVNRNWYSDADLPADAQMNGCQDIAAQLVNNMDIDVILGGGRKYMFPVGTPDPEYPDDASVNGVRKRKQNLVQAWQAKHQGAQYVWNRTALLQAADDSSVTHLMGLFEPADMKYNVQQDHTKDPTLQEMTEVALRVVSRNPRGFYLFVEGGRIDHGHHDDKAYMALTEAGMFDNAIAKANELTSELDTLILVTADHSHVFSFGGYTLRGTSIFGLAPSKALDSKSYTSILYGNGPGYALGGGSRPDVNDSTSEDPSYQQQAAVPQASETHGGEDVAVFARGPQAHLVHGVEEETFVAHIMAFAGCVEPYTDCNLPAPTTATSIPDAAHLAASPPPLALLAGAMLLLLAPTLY

## O=P(O)(O)Oc1c2c(c(OP(=O)(O)O)c3c1C1CC3c3cc4c(cc31)C1CC4c3ccccc31)C1CC2c2cc3c(cc21)C1CC3c2ccccc21 [CLR01]
[1]
  Administered CLR01 in the blood at steady-state: 0.7%
[2]; 1 mg/kg SC vs IV, 2-m old WT mice
  SC bioavailability: identical, within experimental error, to the IV administration
[2]; 20 min, SC or IV 1 mg/kg
  Administered dose detected in the blood at the earliest time point: ~ 30%
[2]; 8 h following SC or IV administration
  Initial CLR01 levels found in the plasma: Approximately 5%
[2]; mouse, plasma, subcutaneous, SC or IV 1 mg/kg
  half-life: ~2.5 h
[2]; oral gavage 10 mg/kg
  Oral bioavailability: negligible
[3]
  Inorganic phosphate released on incubation with brain homogenate: no release of inorganic phosphate was detected
[4]
  Stability: 100%
[5]; SC, 40 μg/kg/day
  Effect on AD-like brain pathology: significant decrease in amyloid plaque burden and hyperphosphorylated tau
[5]; treated AD mice
  Effect on APP processing: did not affect processing of amyloid β-protein precursor (APP)
[6]
  Stability: 100%
[7]
  Stability: 100%
[8]
  IC50: 3.3 µM
[9]
  Concentration ratio for disruption of tubulin polymerization relative to ratios needed for inhibition of aggregation of amyloidogenic proteins: 20–50 times higher
[9]; 1,000 μM CLR01, 0.05-0.09 without or with up to 300 μM
  Absorbance observed immediately (λ = 340 nm): 0.15 absorbance units
[9]; 3 mg/ml (~18 μM) tubulin, 37 °C
  Concentrations that did not significantly affect the polymerization of tubulin: up to 300 μM
[9]; 3 mg/ml (~18 μM) tubulin, 37 °C, CLR01 tested at 10–1,000 μM
  Concentration at which significant modulation of tubulin polymerization was observed: 1,000 μM
[10]
  Affinity for Arg relative to Lys, fold lower: ~ 10 fold
[11]
  Radioactivity levels in the brain, % of blood levels: ~ 2%
[12]
  Inhibition of five major cytochrome P450 isoforms: minimal inhibition
[13]
  Inorganic phosphate released on incubation with ALP: undetectable levels of inorganic phosphate
[14]
  Affinity for Lys residues: low micromolar affinity
[15]
  Effect in zebrafish model of α-syn toxicity: prevented deformation and mortality
[16]
  Protection of primary neurons from Aβ-induced effects: protected primary neurons from Aβ-induced decrease in synaptic spine density, basal synaptic activity, and long-term potentiation
[17]
  IC50: 180 µM
[18]
  Effect on transthyretin pathology: significant decrease in transthyretin deposition
